This note sets out measurements from patent US10682352B2, “Compound having mutant IDH inhibitory activity, preparation method and use thereof” (SHANGHAI HAIHE PHARMACEUTICAL CO., LTD., priority 2016, dated 2020).

Some results are limits rather than exact numbers.

For the assay, the target named is IDH1 R132H (Homo sapiens (Human), UniProt O75874, R132H). Put plainly: Effect on the enzyme activity of IDH1 at the molecular level (NADPH consumption, diaphorase/resazurin). The settings on record: α-KG 1 mM, NADPH 4 μM, 60 min room temperature. In kind it is biochemical. As to the method: The enzyme used in the experiment was purchased from cayman Co.
Chain of IDH1 R132H (O75874 whole entry R132H): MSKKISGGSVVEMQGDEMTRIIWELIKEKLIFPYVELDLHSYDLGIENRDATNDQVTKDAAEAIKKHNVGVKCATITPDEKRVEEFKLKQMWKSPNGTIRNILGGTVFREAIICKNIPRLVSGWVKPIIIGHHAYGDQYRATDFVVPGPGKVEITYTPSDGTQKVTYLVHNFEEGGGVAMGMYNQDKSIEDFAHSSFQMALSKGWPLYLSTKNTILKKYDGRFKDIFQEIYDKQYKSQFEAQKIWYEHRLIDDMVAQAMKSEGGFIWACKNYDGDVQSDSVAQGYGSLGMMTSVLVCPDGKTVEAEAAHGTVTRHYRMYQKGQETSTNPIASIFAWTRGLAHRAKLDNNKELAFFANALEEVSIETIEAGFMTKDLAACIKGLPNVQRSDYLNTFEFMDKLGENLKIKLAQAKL
The substrates α-KG, NADPH and Diaphorase were purchased from Sigma; Resazurin was purchased from J&K; and the remaining reagents were purchased from Sinopharm Chemical Reagent Co., Ltd.
Compound preparation: Compound 12000 g was centrifuged for 5 min, DMSO was added to prepare 10 mM, which was vortexed, then ultrasonic treatment for 10 minutes, and stored at −40° C. The stock solution was diluted firstly with DMSO to a 10 μM solution when tested and then gradient-diluted for 3 times to a different test concentration.
Test method: The enzyme activity of IDH1 to convert α-KG to 2HG was measured by the consumption of NADPH. After the enzymatic reaction was completed, a catalytic excess of diaphorase and reazurin were added, and the resulting fluorescent signal could reflect the amount of remaining NADPH. […] IC50 values were calculated using GraphPad Prism software.
(In general: The colour change of resazurin is a common sign of viable cells or microbes.)
Broadly, the IC50 is the concentration at which inhibition is half-maximal. The low end stands for greater potency in that assay, the high end for weaker potency in that assay. In turn, `CC(Nc1nccc(N2C(=O)NC[C@@H]2C(C)C)n1)c1ccc(Oc2ccccc2)cc1` (stereo partly drawn) [Compound 9, (5S)-5-isopropyl-1-(2-((1-(4-phenoxyphenyl)ethyl)amino)pyrimidin-4-yl)imidazolidine-2-one] gave a concentration for half-maximal inhibition (IC50) of 0.1 to 1 µM.

Consider `CC(C)[C@H]1CNC(=O)N1c1ccnc(NC2(c3cn(-c4ccc(Cl)cc4)cn3)CC2)n1` [Compound 8, (S)-1-(2-((1-(1-(4-chlorophenyl)-1H-imidazol-4-yl)cyclopropyl)amino)pyrimidin-4-yl)-5-isopropyl imidazolidine-2-one], for which the IC50 was 0.1 to 1 µM. With `CC(C)[C@@H]1N(c2ccnc(N[C@@H](C)c3cn(-c4ccc(C(F)(F)F)cc4)cn3)n2)C(=O)N(C)C12CC2` [Compound 103, (S)-7-isopropyl-4-methyl-6-(2-(((S)-1-(1-(4-(trifluoromethyl)phenyl)-1H-imidazole-4-yl) Ethyl)amino)-4-yl)-4,6-diazaspiro[2.4]hept-5-one] the figure was 0.1 to 1 µM; with `CC(C)[C@H]1CN(C)C(=O)N1c1ccnc(NC2(c3cn(-c4cc(F)cc(C5CC5)c4)cn3)CC2)n1` [Compound 53], under 0.1 µM; with `[2H]C1([2H])[C@H](C(C)C)N(c2ccnc(N[C@@H](C)c3ccc(-c4cccc(Cl)c4)cn3)n2)C(=O)N1C` [Compound 2, (S)-3-(2-(((S)-1-(5-(3-chlorophenyl)pyridin-2-yl)ethyl)amino)pyrimidin-4-yl)-4-isopropyl-1-methyl-imidazolidine-2-one-5,5-dideutero], 0.1 to 1 µM. With `CC(C)[C@H]1CN(C)C(=O)N1c1ccnc(N[C@@H](C)c2cn(-c3cccc(C(F)(F)F)c3)cn2)n1` [Compound 59] the figure was 0.1 to 1 µM; with `CC(C)[C@H]1CN(C2CC2)C(=O)N1c1ccnc(N[C@@H](C)c2cn(-c3ccc(Cl)cc3)cn2)n1` [Compound 73, (S)-3-(2-(((S)-1-(1-(4-chlorophenyl)-1H-imidazol-4-yl)ethyl)amino)pyrimidin-4-yl)-4-isopropyl-1-cyclopropylimidazolidine-2-one], 0.1 to 1 µM; with `CC(C)[C@H]1CN(C)C(=O)N1c1ccnc(NC2(c3cn(-c4cc(Cl)cc(C#N)c4)cn3)CC2)n1` [Compound 45, (S)-3-chloro-5-(4-(1-((4-(5-isopropyl-3-methylimidazolidine-2-one-1-yl)pyrimidin-2-yl)amine)cyclopropyl)-1H-imidazolidine-1-yl) phenyl cyanide], under 0.1 µM. Take `C[C@H](Nc1nccc(N2C(=O)NCC23CCCC3)n1)c1cn(-c2ccc(Cl)cc2)cn1` [Compound 11, (S)-1-(2-((1-(1-(4-chlorophenyl)-1H-imidazol-4-yl)ethyl)amino)pyrimidin-4-yl)-1,3-diazaspiro[4.4]-2-one]: the IC50 was 0.1 to 1 µM.

Take `CC(C)[C@H]1CN(C)C(=O)N1c1ccnc(N[C@@H](C)c2cn(-c3cc(Cl)cc(Cl)c3)cn2)n1` [Compound 60, (S)-3-(2-(((S)-1-(1-(3,5-dichlorophenyl)-1hydro-imidazol-4-yl)ethyl)amino)pyrimidin-4-yl)-4-isopropyl-1-methylimidazolidine-2-one]: the concentration for half-maximal inhibition (IC50) was 0.1 to 1 µM. Regarding `CC(C)[C@H]1CN(C)C(=O)N1c1ccnc(N[C@@H](C)c2ncn(-c3ccc(Cl)cc3)n2)n1` [Compound 70], the half-maximal inhibitory concentration (IC50) is 0.1 to 1 µM. With `Cc1ccc(-n2cnc(C3(Nc4nccc(N5C(=O)NC[C@@H]5C(C)C)n4)CC3)c2)cn1` [Compound 29, (S)-5-isopropyl-1-(2-((1-(1-(6-methylpyridin-3-yl)-1H-imidazol-4-yl)cyclopropyl)amino)pyrimidine-4-yl)-2-one] the figure was 0.1 to 1 µM. With `C[C@H](Nc1nccc(N2C(=O)NC[C@@H]2C2CC2)n1)c1cn(-c2ccc(Cl)cc2)cn1` [Compound 14] the figure was 0.1 to 1 µM; with `CC(C)[C@H]1CN(C)C(=O)N1c1ccnc(N[C@@H](C)c2cn(C3CCC(F)(F)CC3)cn2)n1` [Compound 75, (S)-3-(2-(((S)-1-(1-(4,4-difluorocyclohexyl)-1H-imidazol-4-yl)ethyl)amino)pyrimidin-4-yl)-4-isopropyl-1-methylimidazolidine-2-one], 0.1 to 1 µM; with `CC(C)[C@H]1CN(C)C(=O)N1c1ccnc(NC2(c3cn(-c4cccc(C5CC5)c4)cn3)CCC2)n1` [Compound 71, (S)-3-(2-((1-(1-(3-cyclopropylphenyl)-1H-imidazol-4-yl)cyclobutyl)amino)pyrimidin-4-yl)-4-isopropyl-1-methylimidazolidine-2-one], 0.1 to 1 µM. `[2H]C1([2H])[C@H](C(C)C)N(c2ccnc(N[C@@H](C)c3cc(C)c(-c4ccnc(C(F)(F)F)c4)cn3)n2)C(=O)N1C` [Compound 109] returned an IC50 of 0.1 to 1 µM. As for `CC(C)[C@H]1CN(C)C(=O)N1c1ccnc(NC2(c3cn(CC4CCCC4)cn3)CC2)n1` [Compound 40, (S)-3-(2-((1-(1-(cyclopentylmethyl)-1H-imidazol-4-yl)cyclopropyl)amino)pyrimidin-4-yl)-4-isopropyl-1-methylimidazolidine-2-one], the half-maximal inhibitory concentration (IC50) was in the range of 0.1 to 1 µM. `CC(C)CCn1cnc([C@H](C)Nc2nccc(N3C(=O)N(C)C[C@@H]3C(C)C)n2)c1` [Compound 66, (S)-3-(2-(((S)-1-(1-isopentyl-1H-imidazol-4-yl)yl)amino)pyrimidin-4-yl)-4-isopropyl-1-methylimidazolidine-2-one]: the IC50 was 0.1 to 1 µM. The value for `CC(C)[C@H]1CN(C)C(=O)N1c1ccnc(NC2(c3cn(-c4cc(Cl)cc(C5CC5)c4)cn3)CC2)n1` [Compound 48] was under 0.1 µM; that for `CC(C)[C@H]1CN(C)C(=O)N1c1ccnc(NC2(c3ccc(-c4ccnc(C(F)(F)F)c4)cn3)CC2)n1` [Compound 113] was 0.1 to 1 µM. `CC(C)[C@H]1CN(C)C(=O)N1c1ccnc(NC(C)(C)c2cn(-c3ccc(Cl)cc3)cn2)n1` [Compound 72, (S)-3-(2-((2-(1-(4-chlorophenyl)-1H-imidazol-4-yl)prop-2-yl)amino)pyrimidin-4-yl)-4-isopropyl-1-methylimidazolidine-2-one] gave a 50% inhibitory concentration (IC50) of 0.1 to 1 µM. The value for `CC(C)[C@@H]1N(c2ccnc(N[C@@H](C)c3cn(-c4ccc(Cl)cc4)cn3)n2)C(=O)NC12CC2` [Compound 99, (S)-6-(2-(((S)-1-(1-(4-chlorophenyl)-1H-imidazol-4-yl)ethyl)amino)pyrimidin-4-yl)-7-isopropyl-4,6-diazaspiro[2.4] hept-5-one] was 0.1 to 1 µM. With `O=C1NC[C@H](c2ccccc2)N1c1ccnc(NC2(c3cn(-c4ccc(Cl)cc4)cn3)CC2)n1` [Compound 13, (S)-1-(2-((1-(1-(4-chlorophenyl)-1H-imidazol-4-yl)cyclopropyl)amino)pyrimidin-4-yl)-5-phenylimidazolidine-2-one], the half-maximal inhibitory concentration (IC50) is 0.1 to 1 µM. The value for `CCN1C[C@H](C(C)C)N(c2ccnc(N[C@@H](C)c3cn(-c4ccc(Cl)cc4)cn3)n2)C1=O` [Compound 74, (S)-3-(2-(((S)-1-(1-(4-chlorophenyl) 1H-imidazol-4-yl)ethyl)amino)pyrimidin-4-yl)-1-ethyl-4-isopropylimidazolidine-2-one] was 0.1 to 1 µM; that for `CCN1C[C@H](C(C)C)N(c2ccnc(NC3(c4cn(-c5cccc(Cl)c5)cn4)CC3)n2)C1=O` [Compound 41] was 0.1 to 1 µM.

`CC(C)c1cccc(-n2cnc([C@H](C)Nc3nccc(N4C(=O)N(C)C[C@@H]4C(C)C)n3)c2)c1` [Compound 54]: the concentration for half-maximal inhibition (IC50) was in the range of 0.1 to 1 µM. The value for `CC(C)[C@H]1CNC(=O)N1c1ccnc(NC2(c3ccc(-c4ccc(Cl)cc4)cc3)CC2)n1` [Compound 16, (S)-1-(2-((1-(4′-chloro-[1,1′-biphenyl]-4-yl)cyclopropyl)amino)pyrimidin-4-yl)-5-isopropyl imidazolidine-2-one] was 0.1 to 1 µM; that for `CC(C)[C@H]1CN(C)C(=O)N1c1ccnc(NC2(c3cn(-c4ccc(C5CC5)cc4)cn3)CC2)n1` [Compound 39, (S)-3-(2-((1-(1-(4-cyclopropylphenyl)-1H-imidazol-4-yl)cyclopropyl)amino)pyrimidin-4-yl)-4-isopropyl-1-methylimidazolidine-2-one] was 0.1 to 1 µM; that for `CC(C)[C@H]1CN(C)C(=O)N1c1ccnc(NC2(c3ncn(-c4cccc(C5CC5)c4)c3C#N)CC2)n1` [Compound 69, (S)-1-(3-cyclopropylphenyl)-4-(1-((4-(5-isopropyl-3-methyl-2-oxoimidazolidine-1-yl)pyrimidine-2-yl)amino)cyclopropyl)-1H-imidazole-5-carbonitrile] was 0.1 to 1 µM. The value for `C[C@H](Nc1nccc(N2C(=O)NCC2(C)C)n1)c1cn(-c2ccc(Cl)cc2)cn1` [Compound 12, (S)-1-(2-((1-(1-(4-chlorophenyl)-1H-imidazol-4-yl)ethyl)amino)pyrimidin-4-y 1)-5,5-dimethyl imidazolidine-2-one] was 0.1 to 1 µM; that for `CC(C)[C@H]1CN(C)C(=O)N1c1ccnc(NC2(c3cn(C4CCC(F)(F)CC4)cn3)CC2)n1` [Compound 36, (S)-3-(2-((1-(1-(4,4-difluorocyclohexyl)-1H-imidazol-4-yl)cyclopropyl)amino)pyrimidin-4-yl)-4-isopropyl-1-methylimidazolidine-2-one] was 0.1 to 1 µM; that for `CC(C)[C@H]1CN(C)C(=O)N1c1ccnc(NC2(c3ncn(-c4cccc(C5CC5)c4)n3)CC2)n1` [Compound 64] was 0.1 to 1 µM. `Cc1cc(N2C(=O)N(C)C[C@@H]2C2CC2)nc(N[C@@H](C)c2cn(-c3ccc(Cl)cc3)cn2)n1` [Compound 79, (S)-3-(2-(((S)-1-(1-(4-chlorophenyl)-1H-imidazol-4-yl)ethyl)amino)-6-methylpyrimidin-4-yl) cyclopropyl-1-methylimidazolidine-2-one]: the half-inhibitory concentration (IC50) was in the range of 0.1 to 1 µM.
